Entries after “also recorded” stand apart in the source; their conditions may differ.
Key:
long chain DNA (pUC-I′) = experiment: Long chain DNA (pUC-I′) alkylation, 24 hours, sequence gel electrophoresis; type: biochemical; settings: for sequence-specific alkylation of long chain DNA: 100 nM to 12.5 nM, 23° C.
Method: The reaction of the hairpin polyamides 1 and 12 to 14 with a DNA was investigated using a long chain DNA (pUC-I′). The alkylation reaction was continued for 24 hours and a sequence gel electrophoresis was conducted for the analysis.
On the other hand, the alkylation of ImPyPy-γ-ImPyPyDu86 (12) was not observed at 100 nM to 12.5 nM (lanes 5 to 8). […] In the description made above or below, a -γ- means a γ-aminobutyric acid residue.
A DNA fragment (pUC-I′) was synthesized by a PCR method using pUC 18 as a template together with a 5′-texas red-labeled 20 base pair primer: 5′-[…]-3′ (pUC 18 forward, 780-799) and 20 base pair primer: 5′-[…]-3′ (pUC18 reverse, 1459-1478). The resultant DNA fragments were purified by filtration through a Suprec-02, and then examined for the UV absorption to determine the respective concentrations.
(§1) To 10 μl in total of 5 mM sodium phosphate buffer (pH7.0), a standard reaction solution containing 10 nM of the DNA fragment (pUC-I′) whose 5′-terminal had been labeled with the texas red, 10% (v/v) DMF and an agent at the concentration indicated in FIG. 1 was added in a microcentrifugation tube (Eppendorf) and allowed to stand for 24 hours at 23° C.
(§2) A bovine thymus DNA (1 mM, 1 μL) was added for quenching, and the mixture was shaken for 5 minutes at 90° C. The DNA obtained by centrifugation under reduced pressure was combined with 8 μl of a loading color (solution of *FUGENE* Red in DMF) and dissolved, and then shaken for 20 minutes at 94° C. Immediately after this, the mixture was cooled rapidly to 0° C., and a 2 μl aliquot was subjected to an electrophoresis on a 6% denature polyacrylamide gel using a HITACHI 5500-S DNA sequencer system.

DNA fragment (pUC-I′) = experiment: Alkylation of pUC-I′ DNA within a short period (5 minutes, 1 hour, 2 hours), gel electrophoresis; type: biochemical
Method: In order to investigate the difference in the reactivity between Compounds 1 and 13 in more detail, the alkylation within a short period was analyzed.
as §1, with “FIG. 2” for “FIG. 1”, “for 5 minutes, 1 hour and 2 hours, respectively” for “for 24 hours”
as §2, with “After each reaction time, a bovine” for “A bovine”

[1] = system: DNA fragment of 450 base pairs; settings: 450 base pair DNA fragment; cited from earlier work
[2] = system: DNA oligomers 5′-CAAGTCAGAG/5′-CTCTGACTTG; experiment: Short chain DNA (10 bp) alkylation followed by HPLC; type: biochemical; settings: for alkylation of DNA oligomer: 150 μM agent and DNA, 23° C.
Text: In order to clarify the reactive base site in an alkylation site, the alkylation with Polyamides 12, 13 and 14 was investigated by an HPLC using DNA oligomers 5′-CAAGTCAGAG/5′-CTCTGACTTG as substrates. […] Also by decomposing the oligomers by heating and investigating the degradation products of the oligomers by the method which the inventors reported previously (Tetrahedron Lett. 1990, 31, 7197; Tetrahedron Lett. 1993, 34, 2179 and the like), it was proven that the alkylation reaction occurred at the site indicated by an arrow. […] These findings may be attributable to the difference in the reactivity between the Du and the Du86 similarly to the reactivity on the long chain DNA.
A DNA oligomer synthesized by a DNA synthesizer was employed. To 50 μl in total of 50 mM sodium cacodylate buffer (pH7.0), a standard reaction solution containing 150 μM of the double-stranded DNA fragment, 10% (v/v) DMF and each agent of Compounds 1, 12, 13 and 14 (150 μM) was added in a microcentrifugation tube (Eppendorf) and allowed to stand at 23° C.
The advancement of the reaction was ensured by an HPLC using a *CHEMCOBOND* 5-ODS-H column (4.6×150 mm). The HPLC conditions are shown below.
[Linear gradient of 50 mM ammonium formate: 0-50% acetonitrile (0 to 40 min), flow rate: 1.0 mL/min, 254 nm].

[3] = system: GFP protein expression coding region; experiment: Inhibition of mRNA transcription in GFP coding region with T7 promoter and T7 polymerase; type: biochemical; settings: early stage experiment
Text: The condition of the experiment has not been established yet, and a further detailed analysis of the transcription inhibition mechanism is required. […] It leads to a breakthrough toward the development of a novel knockout gene method.

long chain DNA (pUC-II) = experiment: Long chain DNA (pUC-II) alkylation, 24 hours, sequence gel electrophoresis; type: biochemical; settings: nM concentrations, 23° C.
Method: For the purpose of comparing the hairpin polyamides 14, 15 and 16, the DNA alkylation reaction employing a long chain DNA (pUC-II) was conducted.
With this regard, the inventors considered that this problem can be solved by replacing the Du86 with CBI: 1,2,9,9a-tetrahydrocyclopropa[c]benz[e]indole-4-one (22), the method for synthesizing which had already been reported by Boger et al. (J. Org. Chem. 1992, 57, 2873; J. Org. Chem. 1995, 60, 1271 and the like). The benefit of using CBI includes the ability of using commercially available 1,3-dihydroxynaphthalene as a starting material and the ability of providing both enantiomers by an optical resolution. Accordingly, the inventors newly synthesized Compound 23 by replacing the Du86 part of Compound 16 with CBI. Then the inventors evaluated the DNA-alkylating ability using a long chain DNA (pUC-II).
A DNA fragment (pUC-II) was synthesized by a PCR method using pUC 18 as a template together with a 5′-texas red-labeled 21 base pair primer: 5′-[…]-3′ (pUC 18 reverse, 1861-1881) and 18 base pair primer: 5′-TGTAAAACGACGGCCAGT-3′ (pUC18 forward, 378-395). The resultant DNA fragments were purified by filtration through a Suprec-02, and then examined for the UV absorption to determine the respective concentrations.
as §1, with “fragment (pUC-II)” for “fragment (pUC-I′)”, “FIG. 4” for “FIG. 1”
A bovine thymus DNA (1 mM, 1 μL) was added for quenching, and the mixture was shaken for 5 minutes at 90° C. The DNA obtained by centrifugation under reduced pressure was combined with 8 μl of a loading color (solution of *FUGENE* Red in DMF) and dissolved, and then shaken for 20 minutes at 94° C. […]

[4] = system: 39 human cultured cancer cell lines; experiment: Cytostatic activity on 39 human cultured cancer cell lines; type: cell-based; set-up: mean IC50 values: scale not given here; settings: for mean IC50 values: mean over 39 human cancer cell lines
Text: The first is the proportional relationship between the DNA-alkylating ability and the cytostatic activity (FIG. 8). For example, the mean IC50 values of ImPyDu (−4.59), ImPyDu86 (−5.95) and ImPyLDu86 (−8.25) were reduced gradually as the DNA-alkylating ability was increased.
A further interesting result was obtained when comparing the fingerprint patterns indicating the cytostatic activity of the hairpin sequence-specific alkylating agents ImPyPy-γ-ImPyLDu 36 (13) and ImPyPy-γ-ImPyPyLDu 36 (14) (FIG. 9). In general, a high correlation coefficient (r=0.75 to 1.0) is known to be obtained when comparing the fingerprint patterns between the drugs whose action mechanisms are analogous to each other, and in fact an extremely high analogy was observed among a DNA intercalator, doxorubicin, daunorubicin and epirubicin. […] The influence on the cytostatic activity attributable only to the difference in the base sequence-recognizing ability in spite of the analogy in the structure as observed with these Compound 13 and 14 has never been reported, and thus is one of the most important findings.

[5] = system: DNA sequence PyG(A/T) CPu; settings: cited from earlier work

Compound: COC(=O)[C@]1(C)NC2=C(C1=O)[C@@]13C[C@@H]1CN(C(=O)c1cc(NC(=O)c4cc(NC(=O)c5nc(NC(=O)CCCNC(=O)c6cc(NC(=O)c7cc(NC(=O)c8nc(NC(C)=O)cn8C)cn7C)cn6C)cn5C)cn4C)cn1C)C3=CC2=O [Compound 1, ImPyPy-γ-ImPyPyDu]
- sequence-specific alkylation of long chain DNA (long chain DNA (pUC-I′); 24 hours): reacted selectively at G in the 5′-GTCAG-3′ sequence in Site 3
- alkylation after short reaction time (DNA fragment (pUC-I′); one hour): no reaction
- reaction efficiency of sequence-specific DNA alkylation [1]: 7%
- time for sequence-specific alkylation of DNA to complete [1]: ≥ 1 week

Compound: COC(=O)C1=C(C)CC2=C1[C@@]13C[C@@H]1CN(C(=O)/C=C/c1cc(NC(=O)c4nc(NC(=O)CCCNC(=O)c5cc(NC(=O)c6cc(NC(=O)c7nc(NC(C)=O)cn7C)cn6C)cn5C)cn4C)cn1C)C3=CC2=O [Compound 13, AcImPyPy-γ-ImPyLCPI]
- consumption of starting DNA (long chain DNA (pUC-I′); 100 nM (lane 9), 24 hours): disappearance of almost all starting DNA
- sequence-specific alkylation of long chain DNA (long chain DNA (pUC-I′); 24 hours): reacted at A in the GTCAG sequence of the site 3
- alkylation after short reaction time (DNA fragment (pUC-I′); 5 minutes): caused the alkylation
- reactivity on the DNA oligomers compared with other compounds [2]: dramatically increased reactivity
- alkylation of DNA oligomer ([2]; after 5 minutes): 75%
- mRNA produced by transcription inhibition due to alkylation of the adenine in the 387 nt position [3]: observed successfully

Compound: COC(=O)c1c(C)[nH]c2c1[C@@]13C[C@@H]1CN(C(=O)/C=C/c1cc(NC(=O)c4cc(NC(=O)c5nc(NC(=O)CCCNC(=O)c6cc(NC(=O)c7cc(NC(=O)c8nc(NC(C)=O)cn8C)cn7C)cn6C)cn5C)cn4C)cn1C)C3=CC2=O [Compound 14, AcImPyPy-γ-ImPyPyLCPI]
- sequence-specific alkylation of long chain DNA (long chain DNA (pUC-I′); 24 hours): slightly reduced reactivity when compared with Compound 13
- reactivity on the DNA oligomers compared with other compounds [2]: almost equivalent to Compound 1 and poorer than Compound 13
- alkylation of DNA oligomer ([2]; after 2 hours): 46%
- sequence-specific alkylation of pUC-II DNA (long chain DNA (pUC-II)): sequence-specific alkylation was observed at 5′-TGACCA-3′; also recorded: reactivity is far lower than those of Compounds 15 and 16

Compound: COC(=O)c1c(C)[nH]c2c1[C@@]13C[C@@H]1CN(C(=O)/C=C/c1cc(NC(=O)c4cc(NC(=O)c5nc(NC(=O)CCNC(=O)c6cc(NC(=O)c7cc(NC(=O)c8nc(NC(=O)c9nccn9C)cn8C)cn7C)cn6C)cn5C)cn4C)cn1C)C3=CC2=O [Compound 16, H-ImImPyPy-γ-ImPyPyLCPI]
- sequence-specific alkylation of pUC-II DNA (long chain DNA (pUC-II)): sequence-specific alkylation was observed at 5′-TGACCA-3′

Compound: AcImImPyPy-γ-ImPyPyLDu86 [Compound 15]
- sequence-specific alkylation of pUC-II DNA (long chain DNA (pUC-II)): sequence-specific alkylation was observed at 5′-TGACCA-3′

Compound: AcImPyPy-γ-ImPyPyCPI [Compound 12]
- sequence-specific alkylation of long chain DNA (long chain DNA (pUC-I′); 24 hours): not observed
- alkylation of long chain DNA at elevated concentration (long chain DNA (pUC-I′); 10 μM): no occurrence of the alkylation
- reactivity on the DNA oligomers compared with other compounds [2]: extremely poorer when compared with Compound 1
- alkylation of DNA oligomer ([2]; after 17 hours): 13%

Compound: ImPyDu
- mean IC50 values [4]: −4.59

Compound: ImPyDu86
- mean IC50 values [4]: −5.95

Compound: ImPyLDu86
- mean IC50 values [4]: −8.25
- alkylation induced, share of the compound employed [5]: 70%

Compound: ImPyPyLDu86
- change of cytostatic activity due to the vinyl linker between polyamide and Du86 [4]: dramatic increase in the cytostatic activity

Compound: PyPyLDu86
- change of cytostatic activity due to the vinyl linker between polyamide and Du86 [4]: dramatic increase in the cytostatic activity

Compound: PyPyPyLDu86
- change of cytostatic activity due to the vinyl linker between polyamide and Du86 [4]: dramatic increase in the cytostatic activity

Source: patent publication US7456294B2, “Hairpin polyamide” (Japan Science and Technology Agency, priority 2002, dated 2008)
